Source: paper PMC6271349, “Synthesis and Biological Evaluation of 2-Phenoxyacetamide Analogues, a Novel Class of Potent and Selective Monoamine Oxidase Inhibitors” (Molecules, 2014)
Where two headings read alike, the source gives them in different places.

Experiments:
Assay type in all cases: biochemical
[1] = target: T1, Human recombinant Monoamine Oxidase B (Homo sapiens, UniProt P27338); assay: MAOs inhibitory assay (fluorescence-based microplate), MAO-B; settings: recombinant enzyme; inhibitor incubated 37 °C 3 h, borate buffer pH 8.4; mean IC50
T1 construct: purchased Sigma Aldrich M7441
T1 sequence (P27338 1-520): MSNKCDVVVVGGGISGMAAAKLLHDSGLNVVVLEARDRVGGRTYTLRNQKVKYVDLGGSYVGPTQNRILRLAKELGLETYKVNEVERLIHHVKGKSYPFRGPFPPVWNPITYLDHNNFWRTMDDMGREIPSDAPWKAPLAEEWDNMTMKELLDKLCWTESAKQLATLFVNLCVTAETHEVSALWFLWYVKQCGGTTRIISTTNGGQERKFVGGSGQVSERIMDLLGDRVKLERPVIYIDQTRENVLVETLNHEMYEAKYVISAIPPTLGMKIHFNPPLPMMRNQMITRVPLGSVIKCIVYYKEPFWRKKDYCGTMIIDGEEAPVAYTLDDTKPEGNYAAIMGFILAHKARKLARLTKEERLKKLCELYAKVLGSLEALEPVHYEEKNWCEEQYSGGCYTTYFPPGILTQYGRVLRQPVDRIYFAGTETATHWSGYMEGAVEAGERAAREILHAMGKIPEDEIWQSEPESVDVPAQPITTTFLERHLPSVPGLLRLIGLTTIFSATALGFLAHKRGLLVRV
Experimental: (§1) All of these compounds were evaluated for their inhibitory abilities towards MAOs. The inhibition activities against MAO-A and MAO-B of the synthesized compounds were investigated by our reported method.
(§2) Silica gel (100–200 mesh, Qingdao Haiyang Chemical Co., Qingdao, China) was used for flash column chromatography. Analytical thin-layer chromatography was performed with GF254 silica gel. ^1H-NMR spectra were recorded on a Bruker Avance 300 MHz apparatus. HR-ESI-MS and HR-EI analysis were measured on a Bruker micrOTOF-QII and Waters GCT Premier GC-TOF-MS spectrometer, respectively. All chemicals were purchased from the Eastern China Chemical Co (Hangzhou, China). All fluorescent data was recorded on Spectrum M2 (Molecular Device Company). Human recombinant Monoamine Oxidase A (M7316) and B (M7441) (5 mg/mL) were purchased from Sigma Aldrich. Pierce BCA protein assay kit (23227) was purchased from Thermo Scientific.
(§3) MAO IC50 values were determined using our reported fluorescence-based microplate assay. […] The fluorescent signals were measured at λex 360 nm and λem 460 nm on a Spectrum-M2 spectrofluorometer.

[2] = target: T2, Human recombinant Monoamine Oxidase A (Homo sapiens, UniProt P21397); assay: MAOs inhibitory assay (fluorescence-based microplate), MAO-A; settings: for SI (selectivity index): SI = (IC50 of MAO-B)/(IC50 of MAO-A); for IC50: recombinant enzyme
T2 construct: purchased Sigma Aldrich M7316
T2 sequence (P21397 1-527): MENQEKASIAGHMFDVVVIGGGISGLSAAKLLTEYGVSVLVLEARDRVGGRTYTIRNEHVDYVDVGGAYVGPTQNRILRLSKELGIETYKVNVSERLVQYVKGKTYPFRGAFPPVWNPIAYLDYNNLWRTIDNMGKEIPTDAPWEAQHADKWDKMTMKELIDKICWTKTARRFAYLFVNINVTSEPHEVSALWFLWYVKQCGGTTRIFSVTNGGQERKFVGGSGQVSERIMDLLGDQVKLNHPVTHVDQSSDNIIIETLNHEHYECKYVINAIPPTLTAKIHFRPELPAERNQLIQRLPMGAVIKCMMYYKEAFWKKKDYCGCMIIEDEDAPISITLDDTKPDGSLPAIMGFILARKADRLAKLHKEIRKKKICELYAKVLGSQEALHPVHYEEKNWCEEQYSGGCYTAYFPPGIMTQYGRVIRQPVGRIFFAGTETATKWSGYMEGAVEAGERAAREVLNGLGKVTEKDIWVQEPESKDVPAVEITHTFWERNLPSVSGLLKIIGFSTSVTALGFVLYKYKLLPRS
Experimental: as §1, §2, §3

MAO-A = target: T3, MAO-A (Homo sapiens, UniProt P21397); assay: Reversibility of MAO-A inhibition (repeated washing method); settings: for inhibition at 0.1 µM: inhibitor 100 nM; for reversibility of MAO-A inhibition: repeated washing method
T3 construct: purchased Sigma Aldrich M7316
T3 sequence (P21397 1-527): T2 sequence (P21397 1-527)
Experimental: (§4) Reversibility of the MAO inhibition with derivatives of acetamides was evaluated by a reported method. […] After incubating for 2 h, an aliquot was stored at 4 °C for the measurement of MAO-A and -B activity. The remaining reaction solution was placed in an Ultrafree-0.5 centrifugal tube with a 30 kDa Biomax membrane (Millipore) and centrifuged at 9000 g for 20 min at 4 °C. The enzyme retained in the membrane was resuspended in a sodium phosphate buffer and centrifuged two successive times. Then, the enzyme retained in the membrane was resuspended in PBS ([…]) and an aliquot of this suspension was used for MAO-A and -B activity measurement. In order to define 100% MAO activity, control experiments were performed simultaneously by replacing the inhibitors with appropriate dilutions of the vehicles. The corresponding values of percent MAO isoforms inhibition (with and without repeated washing) were calculated based on the control experiments.

MAO-B = target: T4, MAO-B (Homo sapiens, UniProt P27338); assay: Reversibility of MAO-B inhibition (repeated washing method); settings: for inhibition at 0.1 µM: inhibitor 100 nM; for reversibility of MAO-B inhibition: repeated washing method
T4 construct: purchased Sigma Aldrich M7441
T4 sequence (P27338 1-520): T1 sequence (P27338 1-520)
Experimental: as §4

[3] = target: T5, native MAO-A in SH-SY5Y (neuroblastoma cells) lysate (Homo sapiens, UniProt P21397); assay: MAO inhibitory activity in SH-SY5Y cell lysate (endogenous MAO-A); settings: for IC50: SH-SY5Y lysate (only endogenous MAO-A activity), repeated three times; for times more potent in SH-SY5Y lysate relative to HepG2 lysate: ratio of lysate IC50 values (HepG2/SH-SY5Y)
T5 construct: endogenous in cells; host or cells: SH-SY5Y (neuroblastoma cells) lysate
T5 sequence (P21397 1-527): T2 sequence (P21397 1-527)
Experimental: (§5) Compounds 12, 21, 22, 25 were chosen for comparison due to their excellent inhibitory activities, and the results were shown in Table 2. […] This is most likely due to the instability of imine group in cell lysates.
as §3
(§6) Cells were cultured at 37 °C and 5% CO2 in RPMI-1640 media containing 100 units/mL penicillin, 100 μg/mL streptomycin, and 10% FBS. For lysis, cells were resuspended at 5 × 10^7 cells/mL in lysis buffer (42.3 mM PBS, 126 mM NaCl, 1.27 mM MgCl2, 0.85 mM EDTA, 1 mM PMSF, 0.95% Triton X-100, 9.5% glycerol, 4% 25× complete protease inhibitor, pH 7.4). The cells were vortexed to mix and keep on ice for 30 min, and then sonicated to break the cells (180 watts). The cell lysate was then clarified by ultracentrifugation at 4 °C for 30 min at 45,000. Total protein concentration was determined via a Bradford Protein Assay Kit (Bio-Rad) and cell lysates were stored at −80 °C until further use.

[4] = target: T6, native MAO-B in HepG2 (human hepatocellular liver carcinoma cell) lysate (Homo sapiens, UniProt P27338); assay: MAO inhibitory activity in HepG2 cell lysate (endogenous MAO-B); settings: HepG2 lysate (only endogenous MAO-B activity); repeated three times
T6 construct: endogenous in cells; host or cells: HepG2 (human hepatocellular liver carcinoma cell) lysate
T6 sequence (P27338 1-520): T1 sequence (P27338 1-520)
Experimental: as §5, §3, §6

[5] = inhibitor incubated 37 °C 3 h, borate buffer pH 8.4, mean IC50, read-out: IC50 (μM) MAO-A
[6] = after repeated washing, read-out: MAO-A Inhibiton (%) After Washing
[7] = before washing, read-out: MAO-A Inhibiton (%) Before Washing

| SMILES | IC50 [1] | SI (selectivity index) [2] | IC50 [2, 5] | further results |
| --- | --- | --- | --- | --- |
| NC(=O)COc1ccccc1 [Compound 1] | 778 µM | 11.27 | 69 µM | – |
| NC(=O)COc1ccc2ccccc2c1 [Compound 2] | 542 µM | 3.64 | 149 µM | – |
| NC(=O)COc1ccc(F)cc1 [Compound 3] | 255 µM | 2.77 | 92 µM | – |
| NC(=O)COc1ccc(Cl)cc1 [Compound 4] | 202 µM | 0.41 | 490 µM | – |
| NC(=O)COc1ccccc1C=O [Compound 7] | 559 µM | 3.94 | 142 µM | – |
| Cc1ccc(OCC(N)=O)cc1 [Compound 10] | 541 µM | 180 | 3 µM | – |
| COc1ccc(OCC(N)=O)cc1 [Compound 12, 2-(4-Methoxyphenoxy)acetamide] | 980 µM | 245 | 4 µM | enzyme activity recovered after repeated washing (MAO-A) (MAO-A; after repeated washing): more than 80%; inhibition at 0.1 µM (MAO-A; [6]): 12.5%; inhibition at 0.1 µM (MAO-A; [7]): 88.7%; reversibility of MAO-A inhibition (MAO-A): reversible; enzyme activity recovered after repeated washing (MAO-B) (MAO-B; after repeated washing): more than 80%; inhibition at 0.1 µM (MAO-B; after repeated washing, read-out: MAO-B Inhibiton (%) After Washing): 8.6%; inhibition at 0.1 µM (MAO-B; before washing, read-out: MAO-B Inhibiton (%) Before Washing): 96.9%; reversibility of MAO-B inhibition (MAO-B): reversible; IC50 [3]: 5.4 µM |
| COC(=O)c1ccccc1OCC(N)=O [Compound 14] | 98 µM | 0.91 | 108 µM | – |
| CC(C)(C)OC(=O)Nc1ccc(OCC(N)=O)cc1 [Compound 15] | 296 µM | 1.51 | 196 µM | – |
| CC(=O)Nc1ccc(OCC(N)=O)cc1 [Compound 16] | 553 µM | 9.07 | 61 µM | – |
| NC(=O)COc1ccc(C2=NCCN2)cc1 [Compound 19] | 506 µM | 8.30 | 61 µM | – |
| C#CCN=Cc1ccccc1OCC(N)=O [Compound 25] | 0.176 µM | 2.59 | 0.068 µM | IC50 [4]: 1.81 µM; IC50 [3]: 0.88 µM; times more potent in SH-SY5Y lysate relative to HepG2 lysate [3]: 2.1 times |
| C[C@H](NCc1ccc(OCc2cccc(F)c2)cc1)C(N)=O [Safinamide, reference compound] | – | – | – | enzyme activity recovered after repeated washing (MAO-A) (MAO-A; after repeated washing): more than 80%; inhibition at 0.1 µM (MAO-A; [6]): 9.8%; inhibition at 0.1 µM (MAO-A; [7]): 36.1%; reversibility of MAO-A inhibition (MAO-A): reversible; enzyme activity recovered after repeated washing (MAO-B) (MAO-B; after repeated washing): more than 80%; reversibility of MAO-B inhibition (MAO-B): reversible |

More lines, in order of falling IC50 [1], values ahead:

| IC50 [1] | SI (selectivity index) [2] | IC50 [2, 5] | SMILES | further results |
| --- | --- | --- | --- | --- |
| 775 µM | 8.07 | 96 µM | COc1ccccc1OCC(N)=O [Compound 11] | – |
| 714 µM | 3.84 | 186 µM | NC(=O)COc1ccccc1C1=NCCN1 [Compound 20] | – |
| 694 µM | 7.08 | 98 µM | NC(=O)COc1ccccc1Cl [Compound 5] | – |
| 663 µM | 25.5 | 26 µM | Cc1ccccc1OCC(N)=O [Compound 9] | – |
| 642 µM | 3.87 | 166 µM | NC(=O)CSc1ccccc1 [Compound 17] | – |
| 575 µM | 5.99 | 96 µM | NC(=O)COc1ccc(C=NCc2ccccc2)cc1 [Compound 23] | – |
| 534 µM | 4.73 | 113 µM | Cc1ccc(OCC(N)=O)cc1C [Compound 8] | – |
| 457 µM | 5.13 | 89 µM | NC(=O)COc1ccc(C=O)cc1 [Compound 6] | – |
| 366 µM | – | 292 µM | Cc1ccc(SCC(N)=O)cc1C [Compound 18] | – |
| 177 µM | 0.82 | 217 µM | NC(=O)COc1ccccc1C(=O)O [Compound 13] | – |
| 0.076 µM | 4.22 | – | C#CCN=Cc1ccc(OCC(N)=O)cc1 [Compound 21, 2-(4-((prop-2-ynylimino)methyl)phenoxy)acetamide] | IC50 [4]: 0.41 µM; IC50 ([2]; read-out: IC50 value (MAO-A)): 0.018 µM; IC50 [3]: 0.18 µM; times more potent in SH-SY5Y lysate relative to HepG2 lysate [3]: 2.3 times |
